In experiment [1] the test system is IL-8 production by TNF-α in ARPE-19. In words: Inhibitory effect on IL-8 production by TNF-α from retinal pigment epithelial cells. In kind it is cell-based, human. To be noted: all-trans form content 50 μM, 16 h, then TNF-α 4 h, FIG. 5, n=3. The source says: Age-related macular degeneration is known to involve the accumulation of drusen under the retinal pigment epithelium. Drusen attract macrophages and macrophages secrete TNF-α. TNF-α acts on the retinal pigment epithelium and its peripheral tissue, and the cells subsequently produce a variety of cytokines and cause inflammation (Mol Vis. 2008 14: 2292-303). Atypical cytokine that is involved in neutrophil migration and spreads inflammation is interleukin-8 (IL-8). In this experiment, the inhibitory effect of GGA on IL-8 production by TNF-α was examined using a human-derived retinal pigment epithelial cell line, ARPE-19. […]
After 4 hours of incubation, 150 μL of the cell culture supernatant was collected and stored at −80° C. […] Then, 100 μL of an equivalent mixture of a cell viability detection reagent Cell Titer-Glo and PBS was added to each well and the luminescence produced by the reaction with ATP in living cells was measured with a luminometer. From the measured luminescence, the cell viability was calculated by the following formula. Cell viability(%)=100×[(luminescence of GGA-treated group)/(luminescence of base-treated group)]
The stored cell culture supernatant was allowed to warm to room temperature, and the IL-8 concentration was quantified with Human CXCL8/IL-8 Quantikine ELISA Kit (R&D Systems). […]

For experiment [2], the system named is rat models with glaucoma induced by NMDA. In words: Protective effect for retinal ganglion cells against nerve damage by NMDA (thickness of inner plexiform layer). The class given is in vivo. An excerpt:
In recent years the glutamate analogue NMDA (N-methyl-D-aspartate) has been widely reported to be one of causative agents of neurodegenerative diseases including Alzheimer's disease. In the ophthalmic field, NMDA is considered to be involved in optic nerve damage in glaucoma (Brain Research Bulletin, 81 (2010) 349-358). Accordingly, in this experiment rat models with glaucoma induced by NMDA were used to evaluate the neuroprotective effect of GGA.
To Sprague-Dawley (SD) rats, the all-trans form, the 5Z-mono-cis form and teprenone were separately pre-administered by oral administration (Test Example 1), intravitreal administration (Test Example 2) or ocular instillation administration (Test Example 3) and 5 μL of NMDA was administered into the vitreous body to induce nerve damage. For Test Example 2, a marketed therapeutic eye drop for glaucoma, AIPHAGAN (trade name), was intravitreally administered as a positive control once a day for five days. For each of Test Examples, a base not containing GGA or AIPHAGAN was administered as a control in the same manner as described above.
The dosage and regimen of Test Examples 1 to 3 are shown in Table 1 and the constitution of the base used in each tests are shown in Table 2.
Three days after administration of NMDA, the eyeballs were harvested, fixed with half Karnovsky's fixative for 24 hours, embedded in paraffin, thin sectioned and stained with hematoxylin-eosin (HE) to prepare histopathological sections. The histological sections were observed under an optical microscope and the thickness (μm) of the inner plexiform layer (IPL) of the retina was measured. From the thickness of the inner plexiform layer (IPL) of the retina, the neuroprotective effects of the test preparations were evaluated.

With `CC(=O)CC/C=C(\C)CC/C=C(\C)CC/C=C(\C)CCC=C(C)C` [all-trans form, (5E,9E,13E)-6,10,14,18-tetramethyl-5,9,13,17-nonadecatetrae n-2-one], the “inhibitory effect on IL-8 production compared with GGA 6:4” value in experiment [1] is recorded as “significant inhibitory effect on IL-8 production”. The “neuroprotective effect against nerve damage by NMDA compared with base (IPL thickness)” value in experiment [2] (Test Example 1: oral 800 mg/kg, 2 days, once a day, NMDA 4 mM, FIG. 6, Dunnett) was “significant neuroprotective effects”; in experiment [2] (Test Example 2: intravitreal 0.05% w/v, 5 days, once a day, NMDA 40 mM, FIG. 7, Tukey-Kramer), “significant neuroprotective effects”; in experiment [2] (Test Example 3: ocular instillation 1% w/v, 5 days, 5 times per day, NMDA 4 mM, FIG. 9, t-test), “significant neuroprotective effect”. In addition, the “neuroprotective effect compared with AIPHAGAN Ophthalmic Solution 0.1%” value in experiment [2] (Test Example 2: intravitreal 0.05% w/v, 5 days, NMDA 40 mM, FIG. 7) was “significantly superior neuroprotective effect”.

For the origin of these results see US9724312B2, “Agent for the prevention, improvement or treatment of retinal disease” (ROHTO PHARMACEUTICAL CO., LTD., priority 2012, dated 2017).
